Source: PubChem BioAssay (NCI)
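Dose response: 5 concentrations. Exposure: 48 h. Format: 96-well plates. Endpoint: linear interpolation; highest concentration if not reached. GI50: concentration for 50% inhibition of growth. The concentration for full growth arrest is given as TGI.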

What was measured:
Assay in all cases: growth of human tumour cells (NCI), 48 h
M19-MEL melanoma = test system: M19-MEL melanoma
HCT-15 colon = test system: HCT-15 colon
RPMI-8226 leukemia = test system: RPMI-8226 leukemia
LXFL 529 NSCLC = test system: LXFL 529 NSCLC
NCI-H23 lung = test system: NCI-H23 lung
LOX IMVI melanoma = test system: LOX IMVI melanoma
T-47D breast = test system: T-47D breast
BT-549 breast = test system: BT-549 breast
NCI/ADR-RES ovarian = test system: NCI/ADR-RES ovarian
DU-145 prostate = test system: DU-145 prostate

Row | Structure (SMILES) | TGI (M19-MEL melanoma) [µM] | TGI (HCT-15 colon) [µM] | TGI (RPMI-8226 leukemia) [µM] | TGI (LXFL 529 NSCLC) [µM] | TGI (NCI-H23 lung) [µM] | TGI (LOX IMVI melanoma) [µM] | TGI (T-47D breast) [µM] | TGI (BT-549 breast) [µM] | TGI (NCI/ADR-RES ovarian) [µM] | TGI (DU-145 prostate) [µM] | GI50 (HCT-15 colon) [µM] | GI50 (LOX IMVI melanoma) [µM] | GI50 (T-47D breast) [µM] | GI50 (BT-549 breast) [µM] | GI50 (NCI/ADR-RES ovarian) [µM] | GI50 (DU-145 prostate) [µM] | GI50 (RPMI-8226 leukemia) [µM] | GI50 (NCI-H23 lung) [µM]
1 | c1ccc2c(c1)[nH]c1c2ncc2[nH]c3ccccc3c21 | 15.8 | 7.7 | 6.27 | 13.2 | 33.5 | – | – | – | – | – | – | – | – | – | – | – | – | –
2 | CCCCCCCCCCCCCCCCCC[N+](C)(C)Cc1ccc(C[N+](C)(C)CCCCCCCCCCCCCCCCCC)cc1 | 59.8 | > 100 | 48.7 | 12.8 | 18 | 32.3 | – | – | – | – | – | – | – | – | – | – | – | –
3 | FC(F)(F)c1nc(-c2ccccc2)oc1Sc1oc(-c2ccccc2)nc1C(F)(F)F | > 100 | > 100 | > 100 | > 100 | > 100 | > 100 | – | – | – | – | – | – | – | – | – | – | – | –
4 | Cc1c(CC/C(=N\Nc2ccc([N+](=O)[O-])cc2[N+](=O)[O-])c2ccccc2)c2ccccc2n1C | > 100 | > 100 | > 100 | > 100 | > 100 | > 100 | – | – | – | – | – | – | – | – | – | – | – | –
5 | Cc1ccccc1NC(=O)c1ccc([N+](=O)[O-])cc1 | > 100 | > 100 | > 100 | > 100 | > 100 | > 100 | – | – | – | – | – | – | – | – | – | – | – | –
6 | CCCN1C(=O)CNC(=O)c2[nH]cnc21 | > 100 | > 100 | > 100 | > 100 | > 100 | > 100 | – | – | – | – | – | – | – | – | – | – | – | –
7 | COC(=O)C1=C(C)N(NC(N)=O)C(C)(O)C12CCOC2=O (stereo unspecified) | > 100 | > 100 | > 100 | > 100 | > 100 | > 100 | – | – | – | – | – | – | – | – | – | – | – | –
8 | COC1CC(OC)C(O)C(CO)O1 (stereo unspecified) | > 100 | > 100 | – | > 100 | > 100 | > 100 | – | – | – | – | – | – | – | – | – | – | – | –
9 | Cc1ccc2c(c1)C=CC(C#N)N2C(=O)Oc1ccccc1 (stereo unspecified) | – | 57.2 | 52.6 | – | 44.5 | 40 | 73.8 | 48.2 | 50.6 | 42.7 | – | – | – | – | – | – | – | –
10 | COc1ccc(C2C3=C(COC3=O)Oc3cc4c(cc32)OCO4)cc1 (stereo unspecified) | > 100 | > 100 | > 100 | – | > 100 | > 100 | – | – | – | – | – | – | – | – | – | – | – | –
11 | Cc1ccc(NC(=O)CC2C(=O)Nc3ccccc3S2=O)c(C)c1 (stereo unspecified) | > 69.1 | 25.4 | 44.8 | 61.6 | 32.8 | > 87.7 | – | – | – | – | – | – | – | – | – | – | – | –
12 | CCN(CC)CC[n+]1cc2cc(OC)c(OC)cc2c2ccc3cc4c(cc3c21)OCO4 | – | 4.51 | 1.73 | – | 2.3 | 0.996 | 12.1 | 2.88 | 22 | 1.96 | 1.68 | 0.355 | 0.378 | 1.11 | 3.72 | 0.337 | 0.303 | 0.618
13 | O=S(=O)(CCCCl)SCCCCl | – | 54.7 | 64.1 | – | > 100 | 40.6 | 98.2 | 28.1 | > 85.3 | > 100 | – | – | – | – | – | – | – | –
14 | O=C(O)[C@@H](NS(=O)(=O)c1ccc([N+](=O)[O-])cc1)c1ccccc1 | > 100 | > 100 | > 100 | > 100 | > 100 | > 100 | – | – | – | – | – | – | – | – | – | – | – | –
15 | c1ccc2c(CNCCCCCCCCCCCCNCc3cccc4ccccc34)cccc2c1 | 3.22 | 3.08 | 2.55 | 3.23 | 2.89 | 2.52 | – | – | – | – | – | – | – | – | – | – | – | –
16 | O=c1ccnc(SCc2ccc(Cl)cc2)[nH]1 | – | > 100 | > 100 | – | > 100 | > 100 | > 100 | > 100 | > 100 | > 100 | – | – | – | – | – | – | – | –
17 | N#Cc1nn(-c2cc(=O)[nH]c3ccc(Br)cc23)c(N)c1C#N | – | > 100 | > 100 | – | > 100 | > 100 | > 100 | > 100 | > 100 | > 100 | > 100 | > 100 | 6.46 | > 100 | > 100 | > 100 | > 100 | 51.5
18 | Nc1ccc(-c2ccc(-c3nc4cc(Cl)c(Cl)cc4[nH]3)cc2)cc1 | – | > 100 | 38.4 | – | > 100 | > 25.8 | > 100 | > 100 | > 79.2 | 98.4 | 0.406 | 0.0361 | 0.275 | 27.4 | 3.6 | 2.36 | 1.85 | 20.1
19 | O=C(O)CCSC(=S)Nc1ccc([N+](=O)[O-])cc1 | – | > 100 | > 77.2 | > 100 | > 100 | > 75.7 | > 100 | > 100 | > 100 | > 100 | – | – | – | – | – | – | – | –
20 | CC1=CC(=O)c2ccc(C)cc2C1=O | – | 27.3 | 6.36 | – | 23.9 | 17.5 | 15 | 25 | > 100 | 35.7 | – | – | – | – | – | – | – | –
21 | O=C(Cc1ccccc1)NS(=O)(=O)c1ccccc1 | – | – | > 100 | > 100 | > 100 | > 100 | – | – | – | – | – | – | – | – | – | – | – | –
22 | CCOC(=O)C(C(=O)OCC)=c1sc(=C(C(=O)OCC)C(=O)OCC)s1 | > 100 | > 100 | > 100 | > 100 | > 100 | > 100 | – | – | – | – | – | – | – | – | – | – | – | –
23 | Nc1nc(=Nc2ccccc2)ss1 | > 100 | – | > 100 | > 100 | > 100 | > 100 | – | – | – | – | – | – | – | – | – | – | – | –
24 | CC1=Nc2ccccc2C12C(c1ccccc1)C(c1ccccc1)C(=O)N1c3ccccc3CC12 (stereo unspecified) | – | > 100 | > 100 | > 100 | > 100 | > 100 | – | – | – | – | – | – | – | – | – | – | – | –
25 | C=C[C@H]1C=Cc2c(OC)cccc2[C@@H]1COP1(=S)NC(C)C(c2ccccc2)O1 (stereo partly specified) | > 100 | – | > 100 | > 100 | > 100 | > 100 | – | – | – | – | – | – | – | – | – | – | – | –
26 | COC(=O)Cc1cc(=O)n2c([nH]c3ccccc32)c1C#N | > 100 | > 100 | > 100 | – | > 100 | > 100 | – | – | – | – | – | – | – | – | – | – | – | –
27 | Oc1c(I)cc(I)cc1CN(Cc1ccccn1)Cc1ccccn1 | – | > 40.6 | 14.1 | – | 40.6 | > 33.8 | 10.6 | 13.8 | 6.46 | 20.4 | 0.453 | 0.629 | 1.34 | 1.12 | 1.13 | 1.57 | 1.17 | 2.48
28 | Cn1sc2ccccc2c1=S | 16.2 | 17.3 | 18.7 | 27.1 | 34.7 | 4.5 | – | – | 9.38 | – | – | – | – | – | – | – | – | –
